Our source for the relative viability values is the supplement of paper PMC10307832.

Holding throughout (test): relative viability (nuclei count vs DMSO), 5 days (fraction); higher = more cells survive
Compound in experiment [1]: CC1=CC(=CC=C1)NC2=NC(=CS2)C3=CC=NC=C3 + Nc1nc2[nH]cc(CCc3ccc(C(=O)N[C@@H](CCC(=O)O)C(=O)O)cc3)c2c(=O)[nH]1 [Pemetrexed] (partner 0.2 µM)
Put shortly:
(§1)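 Lung cancer cell lines in 1536-well plates were dosed by pin tool the day after seeding, either with one drug alone or with a fixed anchor-drug dose plus five library-drug doses (not always all listed) in √10 steps. After 5 days, cells were fixed and their nuclei stained in one step (final 0.05% Triton X-100, 1% formaldehyde, 1 ug/ml Hoechst), then counted on 4× images. Relative viability is the nuclei count in treated wells divided by that in vehicle wells. Values are medians of duplicate plates.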

Compound in the experiment “Masitinib + OSI-027”: Cc1ccc(NC(=O)c2ccc(CN3CCN(C)CC3)cc2)cc1Nc1nc(-c2cccnc2)cs1 [Masitinib] + COc1cccc2cc(-c3nc([C@H]4CC[C@H](C(=O)O)CC4)n4ncnc(N)c34)[nH]c12 [OSI-027] (partner 0.5 µM)
Put shortly: as §1

Compound in experiment [2]: CC1=CC(=CC=C1)NC2=NC(=CS2)C3=CC=NC=C3 + CCNC(=O)c1noc(-c2cc(C(C)C)c(O)cc2O)c1-c1ccc(CN2CCOCC2)cc1 [Luminespib] (partner 0.01 µM)
In a few lines: as §1

Compound in experiment [3]: CC1=CC(=CC=C1)NC2=NC(=CS2)C3=CC=NC=C3 + C[C@@H](Oc1cc(-c2cnn(C3CCNCC3)c2)cnc1N)c1c(Cl)ccc(F)c1Cl [Crizotinib] (partner 1 µM)
Put shortly:
as §1

As for NCI-H2087, the relative viability in experiment [1] (first compound 0.08 µM) amounted to 0.637; in experiment [1] (first compound 0.253 µM), 0.623; in experiment [1] (first compound 0.8 µM), 0.591; in experiment [1] (first compound 2.53 µM) it was 0.63; in experiment [1] (first compound 8 µM), 0.711; in the experiment with Masitinib + OSI-027 (first compound 0.01 µM), 0.627. The relative viability turned out to be 0.628 with Masitinib + OSI-027 (first compound 0.03162 µM); 0.743 with Masitinib + OSI-027 (first compound 0.1 µM); 0.481 with Masitinib + OSI-027 (first compound 0.3162 µM); 0.437 in the experiment with Masitinib + OSI-027 (first compound 1 µM); 0.17 in experiment [2] (first compound 0.08 µM); 0.183 in experiment [2] (first compound 0.253 µM). The relative viability in experiment [2] (first compound 0.8 µM) is 0.137; in experiment [2] (first compound 2.53 µM), 0.21; in experiment [2] (first compound 8 µM), 0.126; in experiment [3] (first compound 0.08 µM) it was 0.895; in experiment [3] (first compound 0.253 µM), 1.04; in experiment [3] (first compound 0.8 µM), 0.847. For the same cell line, the relative viability in experiment [3] (first compound 2.53 µM) came to 0.67; in experiment [3] (first compound 8 µM), 0.838.
As for NCI-H2126, the relative viability in experiment [1] (first compound 0.08 µM) amounted to 0.596; in experiment [1] (first compound 0.253 µM), 0.599; in experiment [1] (first compound 0.8 µM), 0.657; in experiment [1] (first compound 2.53 µM), 0.599; in experiment [1] (first compound 8 µM), 0.719; with Masitinib + OSI-027 (first compound 0.01 µM), 0.697. For the same cell line, the relative viability in the experiment with Masitinib + OSI-027 (first compound 0.03162 µM) is 0.727; with Masitinib + OSI-027 (first compound 0.1 µM) it was 0.653; with Masitinib + OSI-027 (first compound 0.3162 µM) it was 0.602; with Masitinib + OSI-027 (first compound 1 µM), 0.657; in experiment [2] (first compound 0.08 µM), 0.825; in experiment [2] (first compound 0.253 µM), 0.855. Moreover, the relative viability in experiment [2] (first compound 0.8 µM) was 0.9; in experiment [2] (first compound 2.53 µM) it was 0.875; in experiment [2] (first compound 8 µM) it was 0.865; in experiment [3] (first compound 0.08 µM) it was 0.975; in experiment [3] (first compound 0.253 µM), 1.01; in experiment [3] (first compound 0.8 µM), 1. For the same cell line, the values for the relative viability in experiment [3] (first compound 2.53 µM) and in experiment [3] (first compound 8 µM) were 0.983 and 0.846, respectively.
As to NCI-H2170, the relative viability was determined as 0.229 in experiment [1] (first compound 0.08 µM); 0.286 in experiment [1] (first compound 0.253 µM); 0.27 in experiment [1] (first compound 0.8 µM); 0.26 in experiment [1] (first compound 2.53 µM); 0.264 in experiment [1] (first compound 8 µM); 0.701 with Masitinib + OSI-027 (first compound 0.01 µM). In addition, the relative viability in the experiment with Masitinib + OSI-027 (first compound 0.03162 µM) turned out to be 0.75; with Masitinib + OSI-027 (first compound 0.1 µM) it was 0.791; in the experiment with Masitinib + OSI-027 (first compound 0.3162 µM) it was 0.606; in the experiment with Masitinib + OSI-027 (first compound 1 µM), 0.726; in experiment [2] (first compound 0.08 µM) it was 0.624; in experiment [2] (first compound 0.253 µM), 0.701. Moreover, the relative viability in experiment [2] (first compound 0.8 µM) amounted to 0.775; in experiment [2] (first compound 2.53 µM), 0.527; in experiment [2] (first compound 8 µM), 0.48; in experiment [3] (first compound 0.08 µM), 1.11; in experiment [3] (first compound 0.253 µM), 1.13; in experiment [3] (first compound 0.8 µM) it was 1.09. In addition, the relative viability in experiment [3] (first compound 2.53 µM) was found to be 1.09; in experiment [3] (first compound 8 µM) it was 1.05.
Regarding NCI-H2228, the relative viability in experiment [1] (first compound 0.08 µM) turned out to be 0.38; in experiment [1] (first compound 0.253 µM) it was 0.346; in experiment [1] (first compound 0.8 µM), 0.323; in experiment [1] (first compound 2.53 µM), 0.343; in experiment [1] (first compound 8 µM), 0.208; with Masitinib + OSI-027 (first compound 0.01 µM), 0.633. The relative viability was determined as 0.661 with Masitinib + OSI-027 (first compound 0.03162 µM); 0.638 with Masitinib + OSI-027 (first compound 0.1 µM); 0.807 with Masitinib + OSI-027 (first compound 0.3162 µM); 0.528 with Masitinib + OSI-027 (first compound 1 µM); 0.107 in experiment [2] (first compound 0.08 µM); 0.159 in experiment [2] (first compound 0.253 µM). Besides, the relative viability is 0.194 in experiment [2] (first compound 0.8 µM); 0.164 in experiment [2] (first compound 2.53 µM); 0.17 in experiment [2] (first compound 8 µM); 0.318 in experiment [3] (first compound 0.08 µM); 0.334 in experiment [3] (first compound 0.253 µM); 0.4 in experiment [3] (first compound 0.8 µM). Moreover, the relative viability in experiment [3] (first compound 2.53 µM) is 0.457; in experiment [3] (first compound 8 µM) it was 0.352.
NCI-H2347: the relative viability came out at 0.431 in experiment [1] (first compound 0.08 µM); 0.42 in experiment [1] (first compound 0.253 µM); 0.41 in experiment [1] (first compound 0.8 µM); 0.404 in experiment [1] (first compound 2.53 µM); 0.385 in experiment [1] (first compound 8 µM); 0.403 in the experiment with Masitinib + OSI-027 (first compound 0.01 µM). In addition, the relative viability with Masitinib + OSI-027 (first compound 0.03162 µM) turned out to be 0.531; with Masitinib + OSI-027 (first compound 0.1 µM) it was 0.447; with Masitinib + OSI-027 (first compound 0.3162 µM) it was 0.354; with Masitinib + OSI-027 (first compound 1 µM) it was 0.467; in experiment [2] (first compound 0.08 µM), 0.409; in experiment [2] (first compound 0.253 µM), 0.248. Further, the relative viability is 0.555 in experiment [2] (first compound 2.53 µM); 0.232 in experiment [2] (first compound 8 µM); 0.544 in experiment [3] (first compound 0.08 µM); 0.688 in experiment [3] (first compound 0.253 µM); 0.468 in experiment [3] (first compound 0.8 µM); 0.789 in experiment [3] (first compound 2.53 µM). In experiment [3] (first compound 8 µM), the relative viability worked out at 0.777.
